Reference: patent EP2286808A1, “Cytohesin inhibitors” (Rheinische Friedrich-Wilhelms Universität, priority 2009, dated 2011)

Legend:
[1] = test system: adhesion of the T cell line Jurkat E6 to an immobilized ICAM-1-Fc-fusion protein; test: cell adhesion assay, Jurkat E6 cells to immobilized ICAM-1-Fc-fusion protein; format: cell-based, human; settings: 25 µM amide, OKT3 or PMA stimulation; 100% adhesion = 25 µM control SecinH3 (K); Fig. 3
Procedure: The ability of the amides according to formulas (5) to (30) to inhibit adhesion of the T cell line Jurkat E6 to an immobilized ICAM-1(Inter-Cellular Adhesion Molecule 1)-Fc-fusion protein was tested. On the T cell side, this interaction is exclusively mediated by the β-2 integrin LFA-1 that was enabled to bind to immobilized ICAM-1 through stimulation of Jurkat cells with an anti-TCR (T cell receptor) antibody or with the phorbol ester PMA (Phorbol 12-myristate 13-acetate). Cell adhesion to ICAM-Fc was carried out on 96-well dishes and was read out by fluorescence detection of total input versus bound cells which had been labeled with the DNA dye H33342.
Jurkat E6.1 cells were incubated in HBSS (Hank's BSS, PAA), 0.5% DMSO and, where indicated, 25 µM of the respective amide for one hour at 37°C, 5% CO2. After 30 minutes the cells were labeled with the fluorochrome bisbenzimide trihydrochloride H33342 (Sigma-Aldrich) at […] for 30 minutes at 37°C. 2 x 10^5 cells/ well were subsequently dispensed into a 96-well plate at 100µl/well. Prior to use plates were coated with 12µg/ml goat anti-human IgG for 90 minutes at 21°C, blocked with 1% BSA (Bovine serum albumin) in PBS overnight and incubated for 60 minutes with culture supernatants from CV-1 cells expressing an ICAM-1-Fc fusion protein.
Cells were either stimulated with 5 µg/ml purified anti CD3 antibody (OKT3, hybridome of ATCC, mAb OKT3 purified on protein A, according to standard methods from Current Protocols in Immunology, 5th Ed., Coligan et al., Edts, Wiley 2004) or with 50 ng/ml PMA, respectively. Cells were allowed to adhere to the ICAM-1-Fc coated dishes for 15 minutes and unbound cells were washed off with Hank's BSS (PAA). Adherent cells were read out using a fluorescence plate reader (Synergy-HT1, Biotek) at 485 nm in triplicates.
"100% adhesion" corresponds to the mean of OKT3 and PMA stimulated samples treated with 25 µM control control Secin H3 (K) as reference.

[2] = target: T1, sec7-domains of cytohesin-2 (ARNO) (Homo sapiens, UniProt Q99418); test: guanine nucleotide exchange assay (GDP/GTP exchange on [Δ17]ARF1, tryptophan fluorescence); format: biochemical; settings: for inhibition of the sec7-domain of the isolated cytohesin-2 (relative exchange rate): 5µM amide compared with 5µM control SecinH3 (K), whose rate is set to 1, Fig. 1; for dual activity in cell adhesion and nucleotide exchange assays (summary in words): across nucleotide exchange and cell adhesion assays; for IC50: 250 nM [Δ17]ARF1, 10 nM ARNO-Sec7, 50 µM GTP, PBS pH 7.4, 37°C, read-out: IC50 value measured for the isolated Sec-7 domain of cytohesin-2
T1 construct: ARNO-Sec7 (amino acids 50-255 of ARNO) were expressed in Escherichia coli; inferred from pET15 vector and Ni-NTA purification; made in house; host or cells: Escherichia coli
T1 sequence (Q99418 50-255): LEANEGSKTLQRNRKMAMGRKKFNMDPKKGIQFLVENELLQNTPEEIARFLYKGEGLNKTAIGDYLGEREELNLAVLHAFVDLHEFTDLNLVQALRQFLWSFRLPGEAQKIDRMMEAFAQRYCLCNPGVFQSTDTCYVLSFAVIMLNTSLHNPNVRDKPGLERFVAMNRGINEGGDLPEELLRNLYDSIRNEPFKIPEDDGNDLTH
Procedure: The inhibition of the exchange activity of the sec7-domains of cytohesin-2 (ARNO) of the amides according to formulas (5) to (30) was determined by a guanine nucleotide exchange assay.
For this purpose, the sec7-domains of cytohesin-2 (ARNO-Sec7) and [Δ17]ARF1, a mutant of the ADP-ribosylation factor (ARF) protein, were subcloned into pET15 vectors (Novagen) as described in Hafner, M. et al. Nature 444, 941-944 (2006). N-terminal truncated [Δ17]ARF1 (amino acids 18-181), lacking the first 17 amino acids and ARNO-Sec7 (amino acids 50-255 of ARNO) were expressed in Escherichia coli and purified by Ni-NTA chromatography (Ni-NTA agarose, Qiagen).
The exchange from […] (GDP) to guanidine-triphosphate (GTP) induces a conformation change of the ribosylation factor, as a result of which the fluorescence of a tryptophan radical of the protein is increased. GDP/GTP exchange was measured on [Δ17][…] by tryptophan fluorescence because a large increase in intrinsic fluorescence of ARF occurs upon exchange of GDP for GTP. All measurements were performed in PBS (137 mM NaCl, 2.7 mM KCl, 10.2 mM Na2HPO4, 1.8 mM KH2PO4) pH 7.4, 3 mM MgCl2 at 37°C.
[Δ17]ARF1 (1 µM) in PBS without MgCl2 was preincubated with 80 µM GDP in the presence of 2 mM ethylenediaminetetraacetic acid (EDTA) for 15 minutes. The bound GDP was stabilized by addition of MgCl2 at a final concentration of 3 mM and incubation for 5 minutes. For each exchange reaction 250 nM [Δ17]ARF1 was mixed with 10 nM ARNO-Sec7 (total volume 200 µl) in the absence or presence of inhibitoring amides according to formulas (5) to (30). The reaction was started by injection of 50 µM GTP.
The tryptophan fluorescence was measured at excitation and emission wavelength of 280 nm and 340 nm respectively. All fluorescent measurements were performed with a Varioskan microplate reader (Thermo Scientific), in 96-well plates. For analysis all data were fitted by linear regression.
The pan-active cytohesin inhibitor "SecinH3", a 1-, 2-, 4-substituted triazole according to formula (9) as disclosed in DE 10 2004 055 998 served as the control (K). The relative exchange rate of the control SecinH3 (K) was set to be 1.
The relative exchange rate was determined by comparing the initial linear rise of the fluorescence signal (exchange rate) in the presence of 5µM of the amides according to formulas (5) to (30) with the exchange rate in the presence of 5µM control SecinH3 (K), whereas the latter was set to be 1.
Further, the IC50 value inhibition of the sec7-domain of the isolated cytohesin-2 was determined. The IC50 value was be determined by plotting the initial linear rise of the fluorescence signal against the added concentrations of the amide. The IC50 value corresponds to the concentration of the amide at which the activity of the protein is reduced to half.

[3] = test system: Drosophila insulin signaling (d4E-BP mRNA levels in Drosophila S2 cells); test: Drosophila insulin signaling assay, d4E-BP mRNA by quantitative RT-PCR; format: cell-based; settings: 5 µg/ml insulin; for d4E-BP transcript levels: 10 µM amide for 18 hours, control SecinH3 (K) set to 1, Fig. 2
Procedure: In order to evaluate potential interference of the amides according to formulas (5) to (30) with Drosophila insulin signaling, S2 (Schneider 2 insect cell line, Invitrogen) cells were grown under starvation conditions and subsequently treated with insulin. This triggers a strong activation of the insulin signaling cascade resulting in the nuclear exclusion of the forkhead-box transcription factor dFOXO, which in turn down-regulates the expression of the transcriptional repressor d4E-BP (eIF4E-binding protein). […] This was measured by quantitative RT-PCR and compared to the effect of the control SecinH3 (K) in the same assay.
0.5 x 10^6 S2 cells were grown in 24-well dishes in medium (Schneiders Drosophila Medium, PAN Biotech) without FCS (heat-inactivated fetal calf serum) representing starvation condition. Six hours after seeding cells were treated for 18 hours with 10 µM of the respective amide according to formulas (5) to (30) or 10 µM SecinH3 (K) as reference. 22 hours after seeding cells were treated with 5 µg/ml insulin (Sigma). Controls were performed without amide and/or without insulin treatment. The amides were dissolved in dimethyl sulfoxide (DMSO). Final DMSO concentration in the cell culture medium was 0.5 %.
NucleoSpin 8 RNA Kit (Macherey-Nagel) was used for RNA preparation according to manufacturer's instructions. Genomic DNA digestion and first strand cDNA synthesis was carried out with 250 ng total RNA using QuantiTect Reverse Transkription Kit (Qiagen). Quantitative PCR was performed with the iQ5 Real-Time PCR detection system (Bio-Rad) and iQ SYBR Green Super Mix (Bio-Rad). Three reactions were done in parallel for each template. Real Time PCR was analysed using Bio-Rad iQ5 Optical System Software and Microsoft Excel.
The d4E-BP mRNA level after treatment of cells with the amides according to formulas (5) to (30) compared to the control SecinH3 is shown in Fig. 2. The d4E-BP mRNA level after treatment of cells with the control SecinH3 (K) was set to be 1.

Structure (SMILES)	inhibition of the adhesion of the Jurkat E6.1 cells to ICAM-1 [1]	inhibition of the sec7-domain of the isolated cytohesin-2 (relative exchange rate) [2]	dual activity in cell adhesion and nucleotide exchange assays (summary in words) [2]	d4E-BP transcript levels [3]	potency in nucleotide exchange assay (summary in words) [2]	IC50 [2]	increase in dFOXO-dependent d4E-BP transcript levels compared to the reference (K) ([3]; 10 µM amide)	dose-response behaviour of inhibition in nucleotide exchange assay [2]
COc1ccc(-n2c(SCCC(=O)NC(N)=O)nnc2-c2ccc(C(C)(C)C)cc2)cc1Cl [formula (11)]	better than that of the control (K)	better than that of the control SecinH3 (K)	dual activity	–	–	–	–	–
CC(C)(C)c1ccc(C(=O)Nc2ccc(NC(=S)NC(=O)c3cccs3)cc2)cc1 [formula (6)]	better than that of the control (K)	better than that of the control SecinH3 (K)	–	increased	potent inhibitors	8 µM	–	–
CC(C)(C)c1ccc(C(=O)Nc2ccc(NC(=O)/C=C/c3ccco3)cc2)cc1 [formula (5)]	better than that of the control (K)	better than that of the control SecinH3 (K)	–	increased	potent inhibitors	3.1 µM	~20 fold	displayed a dose-response behaviour
C=CCn1c(SCC(=O)Nc2nsc(-c3ccccc3)n2)nc2scc(-c3ccccc3)c2c1=O [formula (20)]	–	–	dual activity	increased	potent inhibitors	2.1 µM	–	displayed a dose-response behaviour
CC(C)(C)c1ccc(C(=O)Nc2ccc(NC(=O)c3ccc4c(c3)OCO4)cc2)cc1 [formula (29)]	better than that of the control (K)	–	dual activity	–	–	–	–	–
COc1nc(-c2ccc3c(c2)OCO3)n(-c2ccc(NC(=O)CSc3ccccc3)cc2)n1 [SecinH3, reference compound]	–	–	–	–	–	11.4 µM	–	–
COc1nc(-c2ccc(C)cc2)n(-c2ccc(NC(=O)/C=C/c3ccccc3)cc2)n1 [formula (7)]	–	better than that of the control SecinH3 (K)	–	–	–	–	–	–
